The values below come from patent publication US20190210973A1, “COMPOUNDS AND METHODS FOR TREATMENT OF CYSTIC FIBROSIS” (The Curators of the University of Missouri, priority 2018, published 2019).

For assay [1], the target named is T1, G551D-CFTR (Homo sapiens, UniProt P13569, G551D).
T1 construct: The cDNA constructs of CFTR (G551D and delF508) were co-transfected with peGFP-C3; expressed in transfected cells; host or cells: CHO cells (ATCC), transient co-transfection with pEGFP-C3 (GFP as a separate marker, not fused)
Nature of the assay: Patch-clamp recording of G551D-CFTR currents in excised inside-out patches of transfected CHO cells. The class given is cell-based. The text has this: Patch-clamp is considered the gold standard for assessing directly ion channel function in real time. By attaching a glass microelectrode on the surface of a cell, it is possible to record the currents generated by channels proteins that are present in this tiny “patch” of cell membranes. Since millions of ions pass through a single ion channel pore per second, the resulting microscopic currents from a single channel protein molecule can be detected with modem patch-clamp amplifiers. As ion channels (a conductor in electricity term) are arranged in parallel in the cell membrane, it is also possible to assay a group of ion channels by monitoring macroscopic currents representing the sum of currents from individual channels. Microscopic recordings allow artisans to examine exquisitely the effects of compounds on the Po and kinetic parameters of CFTR channels; whereas macroscopic recordings provide an assay not only to quantify the overall effects of compounds on N×Po×i, but also monitor the stability of the CFTR currents in real time.
Chinese hamster ovary (CHO) cells were grown at 37° C. in Dulbecco's modified Eagle's medium supplemented with 10% fetal bovine serum. Cells were subcultured into 35-mm tissue culture dishes 1 day before transfection. PolyFect transfection reagent (QIAGEN) was used to cotransfect CFTR cDNA and pEGFP-C3 (Takara Bio Inc.), which encodes green fluorescence proteins, into CHO cells. After transfection, cells were incubated at 27° C. for at least 2 days before electrophysiological experiments were performed.
Glass chips carrying the transfected cells were transferred to a chamber located on the stage of an inverted microscope (IX51; Olympus). Borosilicate capillary glasses were used to make patch pipettes using a two-stage micropipette puller (PP-81, Narishige, Japan). The pipettes were polished with a homemade microforge to a resistance of 2-4 MΩ in the bath solution. Once the seal resistance reached >40 GΩ, membrane patches were excised into an inside-out mode. Subsequently, the pipette was moved to the outlet of a three-barrel perfusion system and perfused with 25 IU PKA and 2 mM ATP until the CFTR current reached a steady state. A patch-clamp amplifier (EPC10, HEKA, Germany) was used to record electrophysiological data at room temperature. The data were filtered online at 100 Hz with an eight-pole Bessel filter (LPF-8; Warner Instruments) and digitized to a computer at a sampling rate of 500 Hz. […] Membrane potential was held at −30 or −50 mV for all recordings.
Disease-causing mutations (G551D and delF508) were made with PCR-based site-directed mutagenesis using the Pfu Ultra II (Agilent Technologies). […] The cDNA constructs of CFTR (G551D and delF508) were co-transfected with peGFP-C3 (Takara Bio Inc.) encoding the green fluorescent protein into CHO cells using PolyFect transfection reagent (QIAGEN). The transfected cells were transferred into 35 mm tissue culture dishes containing one layer of sterilized glass chips for cells to grow on. The transfected cells were incubated at 27° C. for 2-7 days before electrophysiological experiments were performed.
All patch-clamp experiments were carried out in the excised inside-out configuration. Micropipettes made of borosilicate capillary glass were pulled with a two-stage vertical puller (Narishige) and then fire-polished with a homemade microforge to reach a pipet resistance of 2-4 MΩ when the pipettes were filled with a standard inside-out pipet solution that contains: 140 mM N-Methyl-D-glucamine-Cl (NMDG-Cl), 2 mM MgCl2, 5 mM CaCl2) and 10 mM HEPES, adjusted to pH 7.4 with NMDG.

The target in assay [2] is delF508-CFTR (Homo sapiens, UniProt P13569, DEL508-508). More on the design: delF508 stably-transfected C127 cells were cultured in DMEM with 10% FBS in 6-well plates; expressed in transfected cells; host or cells: C127 cells stably expressing delF508-CFTR. The settings on record: Kopeikin et al., J. Cys. Fibro. 2014; cited from earlier work.
Sequence of delF508-CFTR (P13569 with tags, fused parts or gaps DEL508-508): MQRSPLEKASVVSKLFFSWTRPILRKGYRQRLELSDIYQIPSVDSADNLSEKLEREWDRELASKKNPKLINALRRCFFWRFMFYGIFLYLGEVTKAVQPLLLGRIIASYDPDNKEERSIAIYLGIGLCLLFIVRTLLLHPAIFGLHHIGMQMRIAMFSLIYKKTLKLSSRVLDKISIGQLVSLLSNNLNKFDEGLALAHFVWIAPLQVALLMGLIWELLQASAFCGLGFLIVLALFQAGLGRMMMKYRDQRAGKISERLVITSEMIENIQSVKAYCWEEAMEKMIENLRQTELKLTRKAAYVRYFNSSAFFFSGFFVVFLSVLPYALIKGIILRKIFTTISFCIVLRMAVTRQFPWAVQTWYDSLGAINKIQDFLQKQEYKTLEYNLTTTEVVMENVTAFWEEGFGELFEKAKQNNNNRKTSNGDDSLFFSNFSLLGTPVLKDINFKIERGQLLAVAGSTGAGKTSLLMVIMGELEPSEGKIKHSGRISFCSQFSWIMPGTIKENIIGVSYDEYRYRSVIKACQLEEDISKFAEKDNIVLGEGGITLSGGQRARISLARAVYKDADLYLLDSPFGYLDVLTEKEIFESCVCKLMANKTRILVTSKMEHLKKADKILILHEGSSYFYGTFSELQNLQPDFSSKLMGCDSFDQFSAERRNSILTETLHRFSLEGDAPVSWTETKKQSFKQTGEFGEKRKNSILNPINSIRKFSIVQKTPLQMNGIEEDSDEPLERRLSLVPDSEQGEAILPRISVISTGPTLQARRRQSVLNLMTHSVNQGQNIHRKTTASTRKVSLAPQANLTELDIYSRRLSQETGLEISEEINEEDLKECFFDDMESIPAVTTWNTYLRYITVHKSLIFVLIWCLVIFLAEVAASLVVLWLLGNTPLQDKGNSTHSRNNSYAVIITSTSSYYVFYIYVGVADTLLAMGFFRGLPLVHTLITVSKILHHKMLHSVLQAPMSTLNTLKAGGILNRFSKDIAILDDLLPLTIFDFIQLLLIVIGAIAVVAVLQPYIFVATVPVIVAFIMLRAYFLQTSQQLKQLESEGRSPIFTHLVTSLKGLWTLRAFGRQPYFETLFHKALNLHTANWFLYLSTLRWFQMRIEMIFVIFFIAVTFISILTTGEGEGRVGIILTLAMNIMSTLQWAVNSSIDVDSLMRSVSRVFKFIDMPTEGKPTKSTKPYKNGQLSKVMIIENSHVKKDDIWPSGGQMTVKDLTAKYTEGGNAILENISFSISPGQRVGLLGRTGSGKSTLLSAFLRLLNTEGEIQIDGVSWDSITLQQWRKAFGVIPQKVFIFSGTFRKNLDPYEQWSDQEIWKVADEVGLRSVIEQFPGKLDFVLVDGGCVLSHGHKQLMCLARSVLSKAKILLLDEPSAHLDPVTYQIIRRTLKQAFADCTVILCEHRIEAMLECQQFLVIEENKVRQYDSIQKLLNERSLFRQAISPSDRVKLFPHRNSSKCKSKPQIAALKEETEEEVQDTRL

T1 sequence (P13569 whole entry G551D, the tested form may be a part): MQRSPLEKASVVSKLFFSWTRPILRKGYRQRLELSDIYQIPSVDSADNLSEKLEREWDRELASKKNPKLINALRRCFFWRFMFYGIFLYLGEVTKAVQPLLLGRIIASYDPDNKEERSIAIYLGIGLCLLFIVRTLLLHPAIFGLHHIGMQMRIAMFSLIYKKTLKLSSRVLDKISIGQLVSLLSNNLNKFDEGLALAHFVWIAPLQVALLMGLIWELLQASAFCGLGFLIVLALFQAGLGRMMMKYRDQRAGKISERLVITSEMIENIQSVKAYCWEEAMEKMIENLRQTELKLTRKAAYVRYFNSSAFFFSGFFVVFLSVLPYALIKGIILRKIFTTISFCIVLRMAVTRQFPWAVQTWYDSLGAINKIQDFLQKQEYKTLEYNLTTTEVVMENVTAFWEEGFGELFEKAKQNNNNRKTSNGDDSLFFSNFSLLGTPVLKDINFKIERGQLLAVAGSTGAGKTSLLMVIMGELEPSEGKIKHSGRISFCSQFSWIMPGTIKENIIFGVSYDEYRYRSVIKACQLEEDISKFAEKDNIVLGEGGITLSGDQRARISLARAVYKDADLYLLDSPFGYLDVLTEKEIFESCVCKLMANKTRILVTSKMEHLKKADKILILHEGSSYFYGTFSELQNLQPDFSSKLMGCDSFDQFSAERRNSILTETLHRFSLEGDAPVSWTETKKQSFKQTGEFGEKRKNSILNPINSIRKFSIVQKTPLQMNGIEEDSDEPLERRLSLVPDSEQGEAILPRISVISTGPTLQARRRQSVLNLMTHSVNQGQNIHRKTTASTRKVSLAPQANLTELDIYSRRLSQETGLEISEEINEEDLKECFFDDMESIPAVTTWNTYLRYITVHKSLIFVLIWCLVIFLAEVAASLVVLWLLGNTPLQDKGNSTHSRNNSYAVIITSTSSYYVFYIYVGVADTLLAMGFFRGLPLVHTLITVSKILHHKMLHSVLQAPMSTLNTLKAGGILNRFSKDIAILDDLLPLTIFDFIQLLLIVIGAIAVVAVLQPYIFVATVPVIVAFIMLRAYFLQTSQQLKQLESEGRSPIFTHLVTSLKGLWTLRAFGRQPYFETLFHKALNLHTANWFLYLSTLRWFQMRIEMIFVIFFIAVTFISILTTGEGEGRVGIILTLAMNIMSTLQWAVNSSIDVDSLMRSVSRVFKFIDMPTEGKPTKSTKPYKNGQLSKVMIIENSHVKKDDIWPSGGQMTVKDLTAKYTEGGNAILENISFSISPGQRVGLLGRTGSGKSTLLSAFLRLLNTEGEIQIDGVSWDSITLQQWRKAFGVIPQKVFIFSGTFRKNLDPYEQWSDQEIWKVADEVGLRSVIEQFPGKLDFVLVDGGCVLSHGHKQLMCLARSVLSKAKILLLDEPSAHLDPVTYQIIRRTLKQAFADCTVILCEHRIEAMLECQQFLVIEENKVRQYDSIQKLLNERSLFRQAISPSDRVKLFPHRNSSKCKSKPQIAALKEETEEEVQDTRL

Turning to `CC(C)(C)c1cc(C(C)(C)C)c(NC(=O)c2c[nH]c3ccccc3c2=O)cc1O` [VX-770, Ivacaftor, reference compound], the “fold increase of mean G551D-CFTR current” value in assay [1] (200 nM VX-770 alone) is listed as “around 10 folds”. Moreover, the “effect on G551D-CFTR currents, compound alone” value in assay [1] (after activation by PKA and ATP) is “increased the current to approximately the same level as LZH-00014”. For the same compound, in assay [2], the “Po of delF508-CFTR in the presence of Ivacaftor” value was “above 0.4”.
